From ChEMBL document CHEMBL1145478, “Neisseria gonorrhoeae isolates with reduced susceptibility to cefixime and ceftriaxone: association with genetic polymorphisms in penA, mtrR, porB1b, and ponA” (2007)
≈ marks a conversion by molar mass, not a printed value.

How the values were obtained:
Format in all cases: functional
[1] = system: Neisseria gonorrhoeae; experiment: Antimicrobial activity against Neisseria gonorrhoeae 67 isolate
[2] = system: Neisseria gonorrhoeae; experiment: Antimicrobial activity against Neisseria gonorrhoeae 65 isolate
[3] = system: Neisseria gonorrhoeae; experiment: Antimicrobial activity against Neisseria gonorrhoeae 64 isolate
[4] = system: Neisseria gonorrhoeae; experiment: Antimicrobial activity against Neisseria gonorrhoeae 30 isolate
[5] = system: Neisseria gonorrhoeae; experiment: Antimicrobial activity against Neisseria gonorrhoeae 196 isolate
[6] = system: Neisseria gonorrhoeae; experiment: Antimicrobial activity against Neisseria gonorrhoeae 273 isolate
[7] = system: Neisseria gonorrhoeae; experiment: Antimicrobial activity against Neisseria gonorrhoeae 253 isolate
[8] = system: Neisseria gonorrhoeae; experiment: Antimicrobial activity against Neisseria gonorrhoeae 201 isolate
[9] = system: Neisseria gonorrhoeae; experiment: Antimicrobial activity against Neisseria gonorrhoeae 188 isolate
[10] = system: Neisseria gonorrhoeae; experiment: Antimicrobial activity against Neisseria gonorrhoeae 158 isolate
[11] = system: Neisseria gonorrhoeae; experiment: Antimicrobial activity against Neisseria gonorrhoeae 119 isolate
[12] = system: Neisseria gonorrhoeae; experiment: Antimicrobial activity against Neisseria gonorrhoeae 59 isolate
[13] = system: Neisseria gonorrhoeae; experiment: Antimicrobial activity against Neisseria gonorrhoeae 35 isolate
[14] = system: Neisseria gonorrhoeae; experiment: Antimicrobial activity against Neisseria gonorrhoeae 82 isolate
[15] = system: Neisseria gonorrhoeae; experiment: Antimicrobial activity against Neisseria gonorrhoeae 90 isolate
[16] = system: Neisseria gonorrhoeae; experiment: Antimicrobial activity against Neisseria gonorrhoeae 91 isolate
[17] = system: Neisseria gonorrhoeae; experiment: Antimicrobial activity against Neisseria gonorrhoeae 128 isolate

Row | Compound | MIC [1] [mg/L] | MIC [2] [mg/L] | MIC [3] [mg/L] | MIC [4] [mg/L] | MIC [5] [mg/L] | MIC [6] [mg/L] | MIC [7] [mg/L] | MIC [8] [mg/L] | MIC [9] [mg/L] | MIC [10] [mg/L] | MIC [11] [mg/L] | MIC [12] [mg/L] | MIC [13] [mg/L] | MIC [14] [mg/L] | MIC [15] [mg/L] | MIC [16] [mg/L] | MIC [17] [mg/L]
1 | C=CC1=C(C(=O)O)N2C(=O)[C@@H](NC(=O)/C(=N\OCC(=O)O)c3csc(N)n3)[C@H]2SC1 [CEFIXIME] | 0.25 (≈ 0.551 µM) | 0.25 (≈ 0.551 µM) | 0.25 (≈ 0.551 µM) | 0.25 (≈ 0.551 µM) | 0.094 (≈ 0.207 µM) | 0.064 (≈ 0.141 µM) | 0.064 (≈ 0.141 µM) | 0.064 (≈ 0.141 µM) | 0.064 (≈ 0.141 µM) | 0.047 (≈ 0.104 µM) | < 0.016 | 0.25 (≈ 0.551 µM) | 0.38 (≈ 0.838 µM) | 0.38 (≈ 0.838 µM) | 0.38 (≈ 0.838 µM) | 0.38 (≈ 0.838 µM) | < 0.016
2 | CO/N=C(\C(=O)N[C@@H]1C(=O)N2C(C(=O)O)=C(CSc3nc(=O)c(O)nn3C)CS[C@H]12)c1csc(N)n1 [CEFTRIAXONE] | 0.094 (≈ 0.169 µM) | 0.094 (≈ 0.169 µM) | 0.094 (≈ 0.169 µM) | 0.094 (≈ 0.169 µM) | 0.094 (≈ 0.169 µM) | 0.094 (≈ 0.169 µM) | 0.064 (≈ 0.115 µM) | 0.064 (≈ 0.115 µM) | 0.064 (≈ 0.115 µM) | 0.094 (≈ 0.169 µM) | < 0.002 | 0.094 (≈ 0.169 µM) | 0.094 (≈ 0.169 µM) | 0.125 (≈ 0.225 µM) | 0.125 (≈ 0.225 µM) | 0.125 (≈ 0.225 µM) | < 0.002
3 | CC1(C)S[C@@H]2[C@H](NC(=O)Cc3ccccc3)C(=O)N2[C@H]1C(=O)O [PENICILLIN G] | 2 (≈ 5.98 µM) | 1.5 (≈ 4.49 µM) | 2 (≈ 5.98 µM) | 3 (≈ 8.97 µM) | 1 (≈ 2.99 µM) | 1.5 (≈ 4.49 µM) | 1.5 (≈ 4.49 µM) | 1 (≈ 2.99 µM) | 1 (≈ 2.99 µM) | 1.5 (≈ 4.49 µM) | 0.012 (≈ 0.0359 µM) | 6 (≈ 17.9 µM) | 2 (≈ 5.98 µM) | 6 (≈ 17.9 µM) | 6 (≈ 17.9 µM) | 6 (≈ 17.9 µM) | 0.008 (≈ 0.0239 µM)
